Data on five molecules can be found in patent publication US4130709A, “Pleuromutilin glycoside derivatives” (Eli Lilly and Company, priority 1977, dated 1978).

Converted amounts (≈) assume the structure as drawn.

Type in all cases: cell-based
For one assay, the system named is Mycoplasma synoviae. The assay can be described thus: in vitro broth-dilution studies, mycoplasma. The note with it: Mycoplasmopsis synoviae. The source says: (§1) The minimal inhibitory concentrations (MIC's) of a number of typical compounds of the present invention (R^2 =H in group tested) against various mycoplasma species, as determined by in vitro broth-dilution studies, are summarized in Table V.

The next assay has as its system Mycoplasma hyorhinis. The experiment in a line: in vitro broth-dilution studies, mycoplasma.
Excerpt: as §1

A further assay deals with Mycoplasma gallisepticum. The assay can be described thus: in vitro broth-dilution studies, mycoplasma. The note with it: Mycoplasmoides gallisepticum.
Excerpt: as §1

For another assay, the system named is Bacteroides fragilis 111. The experiment in a line: standard agar-dilution test, anaerobic bacteria. The note with it: Bacteroides fragilis 111; 24-hour incubation; read-out: MIC.
The subject of a further assay is Clostridium perfringens. The assay can be described thus: microbe, parasite or virus in culture. As to conditions: 24 h.
Assay [1] has as its system Staphylococcus aureus (H-Heatley) NRRL B-314. The experiment in a line: in vitro turbidometric assay (Autoturb Microbiological Assay System) against Staphylococcus aureus. As to conditions: nutrient broth pH 7, approximately 4 hours at 37° C., A-40104 factor A as standard. The method, then: The compounds are conveniently tested against a typical gram-positive organism, Staphylococcus aureus, using a turbidometric assay on a semi-automated system (Autoturb Microbiological Assay System, Elanco) described by N. R. Kuzel and F. W. Kavanagh in J. Pharmaceut. Sci, 60 (5), 764 and 767 (1971). In testing these compounds, the following parameters were used: Staphylococcus aureus (H-Heatley) NRRL B-314 in a nutrient broth medium (pH 7), incubated for approximately 4 hours at 37° C. Test samples and A-40104 factor A, which is used as a standard, were dissolved in water. The standard was presented to the Autoturb carrousel at concentrations of 1.25, 2.50, 3.75, 5.00 and 6.25 mcg/ml. Test compounds were diluted to contain approximately 2.5 to 5.0 mcg of activity per ml, as presented to the carrousel. The units of activity of some of the typical compounds of this invention (R^2 =H in group tested) in this in vitro assay are summarized in Table I

The test system of assay [2] is Bacteroides melaninogenicus 2736. The assay can be described thus: standard agar-dilution test, anaerobic bacteria. As to conditions: Bacteroides melaninogenicus 2736; 24-hour incubation; read-out: MIC.
Assay [3] deals with Peptococcus asaccharolyticus. The experiment in a line: standard agar-dilution test, anaerobic bacteria. The note with it: Peptoniphilus asaccharolyticus, 24-hour incubation.
Another assay has as its system Peptococcus prevoti. The experiment in a line: standard agar-dilution test, anaerobic bacteria. The note with it: Peptococcus prevoti; 24-hour incubation; read-out: MIC.
For assay [4], the system named is Bacteroides fragilis 1877. The experiment in a line: standard agar-dilution test, anaerobic bacteria. The note with it: Bacteroides fragilis 1877; 24-hour incubation; read-out: MIC.
A further assay relates to Actinomyces israelii. The experiment in a line: standard agar-dilution test, anaerobic bacteria. The note with it: 24-hour incubation.
The subject of a further assay is Bacteroides vulgatis. The assay can be described thus: standard agar-dilution test, anaerobic bacteria. As to conditions: Bacteroides vulgatis; 24-hour incubation; read-out: MIC.
The subject of another assay is Bacteroides corrodens. The assay can be described thus: standard agar-dilution test, anaerobic bacteria. As to conditions: Eikenella corrodens; Bacteroides corrodens; 24-hour incubation; read-out: MIC.
Another assay relates to Eubacterium aerofaciens. The experiment in a line: standard agar-dilution test, anaerobic bacteria. The note with it: Collinsella aerofaciens; Eubacterium aerofaciens; 24-hour incubation; read-out: MIC.
In assay [5] the test system is Peptostreptococcus anaerobius. The experiment in a line: standard agar-dilution test, anaerobic bacteria. As to conditions: 24-hour incubation.
Another assay concerns Fusobacterium symbiosum. The experiment in a line: standard agar-dilution test, anaerobic bacteria. As to conditions: Fusobacterium symbiosum; 24-hour incubation; read-out: MIC.
A further assay concerns Spiroplasma citri. The experiment in a line: in vitro inhibition of Spiroplasma citri measured by a color reaction. Set-up: key to Activity (color reaction): Red (R) includes complete inhibition; red-orange (RO) indicates partial inhibition; yellow (Y) indicates no inhibition. On the procedure:
In another important aspect, the compounds of this invention are active against Spiroplasmas. Spiroplasma citri is the causative agent of citrus-stubborn disease; another Spiroplasma, corn-stunt Spiroplasma, affects the growth of corn. Table VII summarizes the in vitro activity of representative compounds of the present invention (R^2 =H in this group) against Spiroplasma citri. In this test, inhibition of S. citri is measured by a color reaction. Red (R) includes complete inhibition; red-orange (RO) indicates partial inhibition; and yellow (Y) indicates no inhibition.

In assay [6] the test system is Fusobacterium necrophorum. The assay can be described thus: standard agar-dilution test, anaerobic bacteria. The note with it: 24-hour incubation, read-out: MIC.
The subject of assay [7] is Bacteroides melaninogenicus 1856/28. The experiment in a line: standard agar-dilution test, anaerobic bacteria. The note with it: Prevotella intermedia; Bacteroides melaninogenicus 1856/28; 24-hour incubation; read-out: MIC.
Assay [8] has as its system Bacteroides fragilis 1936B. The assay can be described thus: standard agar-dilution test, anaerobic bacteria. The note with it: Bacteroides fragilis 1936B; 24-hour incubation; read-out: MIC.
In another assay the test system is Clostridium septicum. The experiment in a line: standard agar-dilution test, anaerobic bacteria. As to conditions: 24-hour incubation. On the procedure: (§2) Table IV summarizes the activity of typical compounds of this invention, as determined by the standard agar-dilution test.
(§3) *Endpoint read after 24-hour incubation

For assay [9], the system named is Bacteroides thetaiotaomicron. The experiment in a line: standard agar-dilution test, anaerobic bacteria. The note with it: 24-hour incubation. The method, then: as §2, §3
In assay [10] the test system is Peptostreptococcus intermedius. The assay can be described thus: standard agar-dilution test, anaerobic bacteria. The note with it: Peptostreptococcus intermedius; 24-hour incubation; read-out: MIC.

For the molecule `C=C[C@]1(C)C[C@@H](OC(=O)CO[C@H]2O[C@H](COCc3ccccc3)[C@@H](OCc3ccccc3)[C@H](OCc3ccccc3)[C@H]2OCc2ccccc2)[C@]2(C)[C@H](C)CC[C@]3(CCC(=O)[C@H]32)[C@@H](C)[C@@H]1O` [Example 1, 14-deoxy-14-[(2,3,4,6-tetra-O-benzyl-α-D-glucopyranosyl)oxyacetoxy]mutilin], the MIC in the assay with Mycoplasma synoviae came out at 50 µg/mL (≈ 55.5 µM); in the assay on Mycoplasma hyorhinis it was 50 µg/mL (≈ 55.5 µM); with Mycoplasma gallisepticum, 25 µg/mL (≈ 27.7 µM).

On to `CC[C@]1(C)C[C@@H](OC(=O)CS[C@@H]2O[C@H](CO)[C@@H](O)[C@H](O)[C@H]2O)[C@]2(C)[C@H](C)CC[C@]3(CCC(=O)[C@H]32)[C@@H](C)[C@@H]1O` [Compound 5, 14-deoxy-14-[(β-D-glucopyranosyl)thioacetoxy]-19,20-dihydromutilin], for which the MIC was determined as 64 µg/mL (≈ 115 µM) with Bacteroides fragilis 111; 8 µg/mL (≈ 14.3 µM) in the assay on Clostridium perfringens; 4 µg/mL (≈ 7.16 µM) in assay [2]; 4 µg/mL (≈ 7.16 µM) in assay [3]; 2 µg/mL (≈ 3.58 µM) in the assay with Peptococcus prevoti; 64 µg/mL (≈ 115 µM) in assay [4]. Also, the MIC is ≤ 0.5 µg/mL against Actinomyces israelii; 32 µg/mL (≈ 57.3 µM) with Bacteroides vulgatis; 64 µg/mL (≈ 115 µM) in the assay with Bacteroides corrodens; 4 µg/mL (≈ 7.16 µM) with Eubacterium aerofaciens; 8 µg/mL (≈ 14.3 µM) in [5]; 16 µg/mL (≈ 28.6 µM) with Fusobacterium symbiosum. Moreover, the MIC in [6] worked out at 8 µg/mL (≈ 14.3 µM); in assay [7] it was 2 µg/mL (≈ 3.58 µM); in [8], 128 µg/mL (≈ 229 µM); against Clostridium septicum it was 32 µg/mL (≈ 57.3 µM); in [9] it was 64 µg/mL (≈ 115 µM); in assay [10] it was 2 µg/mL (≈ 3.58 µM). For the same molecule, the “Units of Activity” value in assay [1] fell in the range of 29 to 31 µg/mg. Moreover, the “Activity (color reaction)” value in the assay with Spiroplasma citri (0.01 ppm) was “Y”; in the assay on Spiroplasma citri (0.05 ppm), “R”; in the assay with Spiroplasma citri (0.1 ppm), “R”; with Spiroplasma citri (1.0 ppm), “R”.

For `C=C[C@]1(C)C[C@@H](OC(=O)CS[C@@H]2O[C@H](CO)[C@@H](O)[C@H](O)[C@H]2O)[C@]2(C)[C@H](C)CC[C@]3(CCC(=O)[C@H]32)[C@@H](C)[C@@H]1O` [Compound 10, 14-deoxy-14-[(β-D-glucopyranosyl)thioacetoxy]mutilin], the MIC worked out at 128 µg/mL (≈ 230 µM) in the assay with Bacteroides fragilis 111; 64 µg/mL (≈ 115 µM) in the assay on Clostridium perfringens; 32 µg/mL (≈ 57.5 µM) in [2]; 16 µg/mL (≈ 28.7 µM) in assay [3]; 16 µg/mL (≈ 28.7 µM) with Peptococcus prevoti; 64 µg/mL (≈ 115 µM) in assay [4]. In addition, the MIC was 2 µg/mL (≈ 3.59 µM) against Actinomyces israelii; 64 µg/mL (≈ 115 µM) in the assay on Bacteroides vulgatis; 64 µg/mL (≈ 115 µM) in the assay on Bacteroides corrodens; 3.12 µg/mL (≈ 5.6 µM) against Mycoplasma synoviae; 1.56 µg/mL (≈ 2.8 µM) with Mycoplasma hyorhinis; 1.56 µg/mL (≈ 2.8 µM) with Mycoplasma gallisepticum. Besides, the MIC is 16 µg/mL (≈ 28.7 µM) in the assay with Eubacterium aerofaciens; ≤ 0.5 µg/mL in assay [5]; 64 µg/mL (≈ 115 µM) in the assay with Fusobacterium symbiosum; 2 µg/mL (≈ 3.59 µM) in assay [6]; > 128 µg/mL in [7]; 64 µg/mL (≈ 115 µM) in assay [8]. The MIC against Clostridium septicum turned out to be 64 µg/mL (≈ 115 µM); in assay [9], 64 µg/mL (≈ 115 µM); in assay [10], 4 µg/mL (≈ 7.18 µM). Besides, in assay [1], the “Units of Activity” value was 36 µg/mg.

On to `C=C[C@]1(C)C[C@@H](OC(=O)CO[C@@H]2O[C@H](COC(C)=O)[C@@H](OC(C)=O)[C@H](OC(C)=O)[C@H]2OC(C)=O)[C@]2(C)[C@H](C)CC[C@]3(CCC(=O)[C@H]32)[C@@H](C)[C@@H]1O` [Example 3, 14-deoxy-14-[(2,3,4,6-tetra-O-acetyl-β-D-glucopyranosyl)oxyacetoxy]mutilin], for which the “Units of Activity” value in assay [1] was 75 to 85 µg/mg. Further, the MIC in the assay with Mycoplasma synoviae, against Mycoplasma hyorhinis and in the assay with Mycoplasma gallisepticum was 0.78 µg/mL (≈ 1.1 µM) in each case. In addition, the “Activity (color reaction)” value in the assay on Spiroplasma citri (1.0 ppm) is “R”.

Consider `C=C[C@]1(C)C[C@@H](OC(=O)CO[C@@H]2O[C@H](CO)[C@@H](O)[C@H](O)[C@H]2O)[C@]2(C)[C@H](C)CC[C@]3(CCC(=O)[C@H]32)[C@@H](C)[C@@H]1O` [Example 4, 14-deoxy-14-[(β-D-glucopyranosyl)oxyacetoxy]-mutilin], for which the “Units of Activity” value in assay [1] is 12 to 13 µg/mg. The MIC was 0.78 µg/mL (≈ 1.44 µM) against Mycoplasma synoviae, 0.78 µg/mL (≈ 1.44 µM) with Mycoplasma hyorhinis and 0.39 µg/mL (≈ 0.721 µM) in the assay with Mycoplasma gallisepticum. For the same molecule, the “Activity (color reaction)” value in the assay on Spiroplasma citri (0.1 ppm) is “Y”; in the assay with Spiroplasma citri (1.0 ppm), “R”.
